Reference: patent US20230365592A1 (Agios Pharmaceuticals, Inc., priority 2022, published 2023)

Target: T1, human PAH with the R408W mutation (Homo sapiens, UniProt P00439, R408W)
T1 construct: expressed in transfected cells
T1 sequence (P00439 1-452 R408W): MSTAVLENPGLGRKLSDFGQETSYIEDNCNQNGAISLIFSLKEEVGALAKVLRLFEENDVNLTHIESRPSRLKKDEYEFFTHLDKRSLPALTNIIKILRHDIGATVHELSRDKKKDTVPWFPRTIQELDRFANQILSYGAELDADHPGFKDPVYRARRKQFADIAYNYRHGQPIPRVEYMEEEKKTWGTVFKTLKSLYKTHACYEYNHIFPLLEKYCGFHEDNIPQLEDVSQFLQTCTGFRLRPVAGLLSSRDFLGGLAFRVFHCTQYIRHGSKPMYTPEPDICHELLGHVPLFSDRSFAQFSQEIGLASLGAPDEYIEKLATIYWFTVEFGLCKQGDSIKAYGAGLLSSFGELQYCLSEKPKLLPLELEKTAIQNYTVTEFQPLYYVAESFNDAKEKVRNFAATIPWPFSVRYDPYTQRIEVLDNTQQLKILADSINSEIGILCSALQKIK
Test: Cell Based Phenylalanine Flux Assay;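 also: after compound treatment, cells received sepiapterin plus isotope-labelled Phenylalanine for 4 hours, then labelled Tyrosine in the medium was quantified, 10-point 2-fold dilution series run in duplicate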
Details: A375 cells expressing human R408W PAH; 24 hrs compound incubation; 13C-Tyrosine by LC-MS; average where tested multiple times; read-out: AC50

Compound	AC50 [nM]
Cn1nccc1-c1nnc(C(=O)N2CCc3[nH]cnc3[C@@H]2c2cc3cccc(F)n3n2)o1 [Example 1527, (R)-(4-(7-fluoropyrazolo[1,5-a]pyridin-2-yl)-6,7-dihydro-1H-imidazo[4,5-c]pyridin-5(4H)-yl)(5-(1-methyl-1H-pyrazol-5-yl)-1,3,4-oxadiazol-2-yl)methanone]	> 5000
Cc1cnn(C)c1-c1nnc(C(=O)N2CCc3[nH]cnc3[C@H]2c2cc3cccc(F)n3n2)o1 [Example 1528, (S)-(5-(1,4-dimethyl-1H-pyrazol-5-yl)-1,3,4-oxadiazol-2-yl)(4-(7-fluoropyrazolo[1,5-a]pyridin-2-yl)-6,7-dihydro-1H-imidazo[4,5-c]pyridin-5(4H)-yl)methanone]	< 500
Cc1cc(-c2nnc(C(=O)N3CCc4[nH]cnc4[C@H]3c3cc4c(C(F)F)cccn4n3)o2)nn1C [Example 1531, (S)-(4-(4-(difluoromethyl)pyrazolo[1,5-a]pyridin-2-yl)-6,7-dihydro-1H-imidazo[4,5-c]pyridin-5(4H)-yl)(5-(1,5-dimethyl-1H-pyrazol-3-yl)-1,3,4-oxadiazol-2-yl)methanone]	< 500
Cn1nccc1-c1nnc(C(=O)N2CCc3[nH]cnc3[C@H]2c2cc3c(C(F)F)cccn3n2)o1 [Example 1532, (S)-(4-(4-(difluoromethyl)pyrazolo[1,5-a]pyridin-2-yl)-6,7-dihydro-1H-imidazo[4,5-c]pyridin-5(4H)-yl)(5-(1-methyl-1H-pyrazol-5-yl)-1,3,4-oxadiazol-2-yl)methanone]	< 500
O=C(c1nnc(-c2cnn(C(F)(F)F)c2)o1)N1CCc2[nH]cnc2[C@H]1c1cc2c(C(F)(F)F)cccn2n1 [Example 1538, (S)-(5-(1-(trifluoromethyl)-1H-pyrazol-4-yl)-1,3,4-oxadiazol-2-yl)(4-(4-(trifluoromethyl)pyrazolo[1,5-a]pyridin-2-yl)-6,7-dihydro-1H-imidazo[4,5-c]pyridin-5(4H)-yl)methanone]	500 to 1000

Now from value to compound:

AC50 [nM]	Compound
> 5000	Cc1cc(-c2nnc(C(=O)N3CCc4[nH]cnc4[C@@H]3c3cc4c(C(F)F)cccn4n3)o2)nn1C [Example 1530, (R)-(4-(4-(difluoromethyl)pyrazolo[1,5-a]pyridin-2-yl)-6,7-dihydro-1H-imidazo(4,5-c]pyridin-5(4H)-yl)(5-(1,5-dimethyl-1H-pyrazol-3-yl)-1,3,4-oxadiazol-2-yl)methanone]
1000 to 5000	O=C(c1nnc(-c2cnccn2)o1)N1CCc2[nH]cnc2[C@@H]1c1cc2cccc(C(F)F)n2n1 [Example 1534, (R)-(4-(7-(difluoromethyl)pyrazolo[1,5-a]pyridin-2-yl)-6,7-dihydro-1H-imidazo[4,5-c]pyridin-5(4H)-yl)(5-(pyrazin-2-yl)-1,3,4-oxadiazol-2-yl)methanone]
500 to 1000	Cc1cc(-c2nnc(C(=O)N3CCc4[nH]cnc4[C@H]3c3cc4cccc(C(F)F)n4n3)o2)nn1C [Example 1537, (S)-(4-(7-(difluoromethyl)pyrazolo[1,5-a]pyridin-2-yl)-6,7-dihydro-1H-imidazo[4,5-c]pyridin-5(4H)-yl)(5-(1,5-dimethyl-1H-pyrazol-3-yl)-1,3,4-oxadiazol-2-yl)methanone]
500 to 1000	O=C(c1nnc(-c2cnn(C(F)(F)F)c2)o1)N1CCc2[nH]cnc2[C@H]1c1cc2c(F)cccn2n1 [Example 1540, (S)-(4-(4-fluoropyrazolo[1,5-a]pyridin-2-yl)-6,7-dihydro-1H-imidazo[4,5-c]pyridin-5(4H)-yl)(5-(1-(trifluoromethyl)-1H-pyrazol-4-yl)-1,3,4-oxadiazol-2-yl)methanone]
500 to 1000	O=C(c1nnc(-c2ccn(C(F)(F)F)n2)o1)N1CCc2[nH]cnc2[C@H]1c1cc2cccc(C(F)(F)F)n2n1 [Example 1542, (S)-(5-(1-(trifluoromethyl)-1H-pyrazol-3-yl)-1,3,4-oxadiazol-2-yl)(4-(7-(trifluoromethyl)pyrazolo[1,5-a]pyridin-2-yl)-6,7-dihydro-1H-imidazo[4,5-c]pyridin-5(4H)-yl)methanone]
